The experiment has as its system M. mycetomatis genome strain MM55. The experiment in a line: CLSI M38-A2 based in vitro susceptibility screening (XTT or resazurin), growth at fixed concentration. Type of experiment: cell-based, Madurella mycetomatis. The conditions noted are these: Madurella mycetomatis. For orientation: Formazan colour is commonly taken as a measure of viable cells.
Setting [1] is: 25 uM, replicate A, read-out: Percentage survival at 25um, 25 um A.
Where [2] appears, read: mean of three replicates, read-out: Percentage survival at 100um, 100 uM mean.
[3] abbreviates: replicate 1, read-out: Percentage survival at 100um, 100 uM A (first replicate column).
Setting [4] is: replicate 2, read-out: Percentage survival at 100um, 100 uM A (second replicate column).
The mark [5] stands for this setting: replicate 3, read-out: Percentage survival at 100um, 100 uM A (third replicate column).
[6] abbreviates: 25 uM, mean of three replicates, read-out: Percentage survival at 25um, 25 uM mean.
The mark [7] stands for this setting: 25 uM, replicate B, read-out: Percentage survival at 25um, 25 uM B.
The mark [8] stands for this setting: 25 uM, replicate C, read-out: Percentage survival at 25um, 25 uM C.
Setting [9] is: 25 uM, mean of replicates, read-out: Percentage survival at 25um, 25 uM mean.
[10] abbreviates: mean of replicates, read-out: Percentage survival at 100um, 100 uM mean.
[11] abbreviates: 25 uM, mean of replicates, MM55, read-out: Percentage survival at 25um, 25 uM mean.
Setting [12] is: 25 uM, replicate A, MM55, read-out: Percentage survival at 25um, 25 um A.
Setting [13] is: 25 uM, replicate B, MM55, read-out: Percentage survival at 25um, 25 uM B.
[14] abbreviates: 25 uM, replicate C, MM55, read-out: Percentage survival at 25um, 25 uM C.
Setting [15] is: mean of replicates, MM55, read-out: Percentage survival at 100um, 100 uM mean.
[16] abbreviates: replicate 1, MM55, read-out: Percentage survival at 100um, 100 uM A.
Setting [17] is: replicate 2, MM55, read-out: Percentage survival at 100um, 100 uM A.
[18] abbreviates: replicate 3, MM55, read-out: Percentage survival at 100um, 100 uM A.
The mark [19] stands for this setting: replicate 1, read-out: Percentage survival at 100um, 100 uM A.
[20] abbreviates: replicate 2, read-out: Percentage survival at 100um, 100 uM A.
[21] abbreviates: replicate 3, read-out: Percentage survival at 100um, 100 uM A.
[22] abbreviates: first replicate column, read-out: Percentage survival at 100um, 100 uM A.
The mark [23] stands for this setting: second replicate column, read-out: Percentage survival at 100um, 100 uM A.
[24] abbreviates: third replicate column, read-out: Percentage survival at 100um, 100 uM A.

Molecules are shown by their SMILES. Where two headings read alike, the source gives them in different places.

Activity and Percent fungal survival data for 18 compounds are collected here from paper PMC8815882, “Screening the pandemic response box identified benzimidazole carbamates, Olorofim and ravuconazole as promising drug candidates for the treatment of eumycetoma” (PLoS Neglected Tropical Diseases, 2022).

As for `CCN(CC)CCCC(C)Nc1ccnc2cc(Cl)ccc12` (stereo not drawn) [MMV000008], the activity at 25 µM was found to be 87.2% under setting [1]; 72.9% (read-out: Percentage survival at 25um, 25 uM B); 80.7% (read-out: Percentage survival at 25um, 25 uM C); 80.3% (read-out: Percentage survival at 25um, 25 uM mean). Moreover, the activity at 100 µM under setting [2] worked out at 62.1%, the activity at 100 µM under setting [3] was 45.5%, the activity at 100 µM under setting [4] came to 61% and the activity at 100 µM under setting [5] stood at 79.8%.
Regarding `O=C(Cn1cnc2ccccc2c1=O)Nc1ccccc1` [MMV1578891], the activity at 25 µM under setting [6] amounted to 80.3%, the activity at 25 µM under setting [1] was determined as 84%, the activity at 25 µM under setting [7] turned out to be 82.2% and the activity at 25 µM under setting [8] was 74.7%. Besides, the activity at 100 µM amounted to 83.9% under setting [2], 90.8% under setting [3] and 81.6% under setting [5]. Further, the Percent fungal survival at 100 µM under setting [4] amounted to 79.4%.
Regarding `CC(C)c1cc2c(cc1S(=O)(=O)O)[C@@]1(C)CCC[C@@](C)(C(=O)O)[C@@H]1CC2` [MMV1633675], the activity at 25 µM amounted to 79.3% under setting [6], 73.4% under setting [1], 82.6% under setting [7] and 81.8% under setting [8]. For the same compound, the activity at 100 µM worked out at 82.2% under setting [2], 91.1% under setting [3] and 81.5% under setting [5]. In addition, the Percent fungal survival at 100 µM under setting [4] was found to be 74%.
Turning to `O=C(/C=C\n1cnc(-c2cc(C(F)(F)F)cc(C(F)(F)F)c2)n1)NNc1ccccn1` [MMV1580493], the activity at 25 µM under setting [9] was determined as 67.9%, the activity at 25 µM under setting [1] was 79.7%, the activity at 25 µM under setting [7] came out at 83.9% and the activity at 25 µM under setting [8] amounted to 40.3%. Further, the activity at 100 µM runs as follows: under setting [10], 77.3%; under setting [3], 119%; under setting [5], 32.4%. In addition, under setting [4], the Percent fungal survival at 100 µM amounted to 80%.
For `NC(=S)N/N=C/c1ncccc1N` [MMV1580496], the activity at 25 µM is 67.8% under setting [11], 65.1% under setting [12], 79% under setting [13] and 59.3% under setting [14]. Besides, the activity at 100 µM worked out at 44.6% under setting [15], 65.1% under setting [16], 56.6% under setting [17] and 12% under setting [18].
As to `CC(C)C(=O)N[C@H]1[C@H]([C@H](O)[C@H](O)CO)OC(C(=O)O)=C[C@@H]1N=[N+]=[N-]` [MMV1782111], the activity at 25 µM reads like this: under setting [11], 95.4%; under setting [12], 71.1%; under setting [13], 133%; under setting [14], 82.3%. Moreover, the activity at 100 µM by setting is: under setting [15], 57.6%; under setting [16], 71%; under setting [17], 27.4%; under setting [18], 74.4%.
Regarding `Oc1ccc(NCc2ccccc2OCc2ccccc2)cc1` [MMV1580504], the activity at 25 µM reads like this: under setting [6], 81.4%; under setting [1], 86.2%; under setting [7], 84.4%; under setting [8], 73.7%. Further, the activity at 100 µM was 8.06% under setting [2], 2.17% under setting [3] and 17.3% under setting [5]. Also, under setting [4], the Percent fungal survival at 100 µM worked out at 4.7%.
On to `C/C(=N\NC(=O)C1CC1c1ccccc1)c1ccc(NC(=O)c2ccco2)cc1` (stereo not drawn) [MMV1580487], for which the activity at 25 µM is, setting by setting: under setting [11], 83.7%; under setting [12], 79.1%; under setting [13], 93.7%; under setting [14], 78.4%. The activity at 100 µM under setting [15] amounted to 85.2%, the activity at 100 µM under setting [16] came out at 91.2%, the activity at 100 µM under setting [17] worked out at 88% and the activity at 100 µM under setting [18] worked out at 76.5%.
Take `O=C(O)c1ccc(-c2ccc(O[C@H]3O[C@H](CO)[C@@H](O)[C@H](O)[C@@H]3O)cc2)cc1` [MMV1633970]: the activity at 25 µM under setting [9] came out at 80.8%, the activity at 25 µM under setting [1] is 83.4%, the activity at 25 µM under setting [7] was 84.3% and the activity at 25 µM under setting [8] turned out to be 74.7%. Besides, the activity at 100 µM reads like this: under setting [10], 73.9%; under setting [19], 68.9%; under setting [20], 82.1%; under setting [21], 70.6%.
`COc1ccc(C(C)(C)C)cc1NC(=O)C(=O)c1ccc(OCCN2CCOCC2)c2ccccc12` [MMV1782209]: the activity at 25 µM reads like this: under setting [11], 96.3%; under setting [12], 102%; under setting [13], 99.5%; under setting [14], 87.2%. The activity at 100 µM runs as follows: under setting [15], 91.3%; under setting [16], 102%; under setting [17], 86%; under setting [18], 85.7%.
Turning to `Cc1ncc([N+](=O)[O-])n1CC(O)CN1CCOCC1` (stereo not drawn) [MMV1613562], the activity at 25 µM under setting [6] amounted to 110%, the activity at 25 µM under setting [1] was 99.4%, the activity at 25 µM under setting [7] was 137% and the activity at 25 µM under setting [8] was 94%. The activity at 100 µM is, setting by setting: under setting [2], 94.6%; under setting [3], 93.7%; under setting [5], 104%. Further, the Percent fungal survival at 100 µM under setting [4] was found to be 86.5%.
Take `CC(=O)NC[C@H]1CN(c2ccc(N3CCSCC3)c(F)c2)C(=O)O1` [MMV688756]: the activity at 25 µM was 96.1% under setting [9], 94.4% under setting [1], 99.9% under setting [7] and 94.2% under setting [8]. Also, the activity at 100 µM runs as follows: under setting [10], 92.4%; under setting [19], 100%; under setting [20], 85.2%; under setting [21], 91.6%.
In the case of `Cc1ccc(N2CCC(CCOc3ccc(S(C)(=O)=O)cc3)CC2)nn1` [MMV1634394], the activity at 25 µM under setting [6] is 86.9%, the activity at 25 µM under setting [1] is 79.1%, the activity at 25 µM under setting [7] was 80.9% and the activity at 25 µM under setting [8] was determined as 101%. Moreover, the activity at 100 µM under setting [22] was found to be 52.8%, the activity at 100 µM under setting [2] is 63.9%, the activity at 100 µM under setting [23] came out at 75.2% and the activity at 100 µM under setting [24] turned out to be 63.7%.
Turning to `COc1cc2c(O)c3c(c(-c4ccc5c(c4)OCO5)c2cc1OC)C(=O)OC3` [MMV102270], the activity at 25 µM reads like this: under setting [6], 80.6%; under setting [1], 79.5%; under setting [7], 84.8%; under setting [8], 77.5%. Moreover, the activity at 100 µM reads like this: under setting [2], 107%; under setting [3], 93.7%; under setting [5], 153%. The Percent fungal survival at 100 µM under setting [4] was 74.4%.
Take `O=C(Nc1ccc(N2CCN(C(=O)c3ccccc3)CC2)cc1)c1ccc2c(c1)OCO2` [MMV1580505]: the activity at 25 µM worked out at 104% under setting [11], 103% under setting [12], 109% under setting [13] and 101% under setting [14]. In addition, the activity at 100 µM was determined as 96.7% under setting [15], 102% under setting [16], 96.8% under setting [17] and 91.4% under setting [18].
As to `CCOC(=O)/C=C/[C@H](C[C@@H]1CCNC1=O)NC(=O)[C@H](CC)n1cccc(NC(=O)c2cc(C)on2)c1=O` [MMV1782112], the activity at 25 µM stood at 92.1% under setting [6], 76.9% under setting [1], 89.6% under setting [7] and 110% under setting [8]. Further, the activity at 100 µM came out at 81.9% under setting [22], 68.4% under setting [2], 76.6% under setting [23] and 46.5% under setting [24].
For the compound `CCOC(=O)N1CCN(c2ccc(Cl)cc2)CC1` [MMV1578898], the activity at 25 µM runs as follows: under setting [9], 83.5%; under setting [1], 91.8%; under setting [7], 91.8%; under setting [8], 66.9%. Besides, the activity at 100 µM by setting is: under setting [10], 47.7%; under setting [19], 38.1%; under setting [20], 63.1%; under setting [21], 42%.
Consider `COc1ccc(OCc2ccc(COc3c(Cl)cccc3Cl)cc2)c(Cl)c1` [MMV1580485], for which the activity at 25 µM is, setting by setting: under setting [11], 89.3%; under setting [12], 92.6%; under setting [13], 89.4%; under setting [14], 85.7%. Also, the activity at 100 µM stood at 77.9% under setting [15], 89.9% under setting [16], 70.7% under setting [17] and 73.2% under setting [18].
